The target in one test is T1, human B1R (Homo sapiens, UniProt P46663).
T1 construct: expressed in transfected cells; host or cells: CHO K1 cells
T1 sequence (P46663 1-353): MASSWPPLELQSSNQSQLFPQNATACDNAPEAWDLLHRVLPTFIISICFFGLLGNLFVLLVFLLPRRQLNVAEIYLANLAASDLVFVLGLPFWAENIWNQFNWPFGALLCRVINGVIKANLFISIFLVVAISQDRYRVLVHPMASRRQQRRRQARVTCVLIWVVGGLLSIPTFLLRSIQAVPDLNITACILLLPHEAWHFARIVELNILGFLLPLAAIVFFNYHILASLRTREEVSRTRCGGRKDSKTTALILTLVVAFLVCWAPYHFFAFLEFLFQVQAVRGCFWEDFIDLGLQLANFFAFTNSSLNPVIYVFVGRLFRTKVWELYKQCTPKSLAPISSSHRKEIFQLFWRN
Put plainly: Functional investigation on the bradykinin receptor 1 (B1R), FLIPR Ca2+ assay, hB1R cells. It is filed as cell-based. The conditions noted are these: % inhibition human B1R at 10 μM; CHO K1 cells transfected with human B1R; agonist Lys-Des-Arg9 bradykinin at EC80; read-out: % Inh. (hum. B1R) 10 μM. The procedure: (§1) The agonistic or antagonistic action of substances can be quantified on the bradykinin receptor 1 (B1R) of the human and rat species with ectopically expressing cell lines (CHO K1 cells) and with the aid of a Ca^2+-sensitive dye (Fluo-4) using a fluorescent imaging plate reader (FLIPR). The indication in % activation is based on the Ca^2+ signal after addition of Lys-Des-Arg^9 bradykinin (0.5 nM) or Des-Arg^9 bradykinin (100 nM). Antagonists lead to a suppression of the Ca^2+ influx following administration of the agonist. The % inhibition in comparison with the maximum achievable inhibition is indicated.
(§2) The agonistic or antagonistic action of substances can be determined on the bradykinin 1 receptor (B1R) of the human and rat species with the following assay. According to this assay, the Ca^2+ inflow through the channel is quantified with the aid of a Ca^2+-sensitive dye (Fluo-4 type, Molecular Probes Europe BV, Leiden, The Netherlands) in a fluorescent imaging plate reader (FLIPR, Molecular Devices, Sunnyvale, USA).
(§3) Chinese hamster ovary cells (CHO K1 cells) which are stably transfected with the human B1R gene (hB1R cells) or the B1R gene of the rat (rB1R cells) are used. For functional investigations, these cells are plated-out onto black 96-well plates with a clear base (BD Biosciences, Heidelberg, Germany or Greiner, Frickenhausen, Germany) in a density of 20,000-35,000 cells/well. Overnight, the cells are incubated at 37° C. and 5% CO2 in culture medium (hB1R cells: Nutrient Mixture Ham's F12, Gibco Invitrogen GmbH, Karlsruhe, Germany or DMEM, Sigma-Aldrich, Taufkirchen, Germany; rB1R cells: D-MEM/F12, Gibco Invitrogen, Karlsruhe, Germany) with 10 vol. % FBS (foetal bovine serum, Gibco Invitrogen GmbH, Karlsruhe, Germany or PAN Biotech GmbH, Aidenbach, Germany). On the following day the cells are loaded with 2.13 μM Fluo-4 (Molecular Probes Europe BV, Leiden, The Netherlands) in HBSS buffer (Hank's buffered saline solution, Gibco Invitrogen GmbH, Karlsruhe, Germany) with 2.5 mM probenecid (Sigma-Aldrich, Taufkirchen, Germany) and 10 mM HEPES (Sigma-Aldrich, Taufkirchen, Germany) for 60 min at 37° C. The plates are the washed twice with HBSS buffer, and HBSS buffer which additionally contains 0.1% BSA (bovine serum albumin; Sigma-Aldrich, Taufkirchen, Germany), 5.6 mM glucose and 0.05% gelatine (Merck KGaA, Darmstadt, Germany) is added. After a further incubation of 20 minutes at room temperature, the plates are inserted into the FLIPR for Ca^2+ measurement. Alternatively they are washed with buffer A (15 mM HEPES, 80 mM NaCl, 5 mM KCl, 1.2 mM CaCl2, 0.7 mM MgSO4, 2 g/l glucose, 2.5 mM probenecid) and loaded with buffer A with added 2.5 μM Fluo-4 and 0.025% Pluronic F127 (Sigma-Aldrich, Taufkirchen, Germany). The cells are then washed twice with buffer A and incubated for 30 minutes with buffer A, which additionally contains 0.05% BSA and 0.05% gelatine, at room temperature and then used for Ca^2+ measurement in the FLIPR.
(§4) The Ca^2+-dependent fluorescence is measured here before and after addition of substances (λex=488 nm, λem=540 nm). The quantification is performed by measuring the highest fluorescence intensity (FC, fluorescence counts) over time.
(§5) The FLIPR protocol comprises two additions of substance. Test substances (10 μM) are first pipetted onto the cells and the Ca^2+ inflow is compared with the control (hB1R: Lys-Des-Arg^9 bradykinin>=50 nM; rB1R: Des-Arg^9 bradykinin 10 μM). The value in % activation based on the Ca^2+ signal after addition of Lys-Des-Arg^9 bradykinin (>=50 nM) or Des-Arg^9 bradykinin (10 μM) is obtained therefrom. After incubation for 10-20 minutes, Lys-Des-Arg^9 bradykinin (hB1R) or Des-Arg^9 bradykinin (rB1R) is applied in the EC80 concentration and the inflow of Ca^2+ is likewise determined. Antagonists lead to a suppression of the Ca^2+ inflow. The % inhibition in comparison with the maximum achievable inhibition is calculated. […]

The next test addresses T2, rat B1R (Rattus norvegicus, UniProt P97583).
T2 construct: expressed in transfected cells; host or cells: CHO K1 cells
T2 sequence (P97583 1-337): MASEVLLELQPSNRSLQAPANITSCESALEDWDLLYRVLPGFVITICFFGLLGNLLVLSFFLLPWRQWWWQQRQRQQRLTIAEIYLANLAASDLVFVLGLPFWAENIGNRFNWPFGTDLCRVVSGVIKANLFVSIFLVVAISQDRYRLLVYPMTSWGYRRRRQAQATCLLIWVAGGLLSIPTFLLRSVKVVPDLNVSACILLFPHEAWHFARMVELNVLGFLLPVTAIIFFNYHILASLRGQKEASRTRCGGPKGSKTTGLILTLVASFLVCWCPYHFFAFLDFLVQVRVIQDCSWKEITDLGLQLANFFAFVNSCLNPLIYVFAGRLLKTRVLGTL
Put plainly: Functional investigation on the bradykinin receptor 1 (B1R), FLIPR Ca2+ assay, rB1R cells. It is filed as cell-based. The conditions noted are these: % inhibition rat B1R at 10 μM; CHO K1 cells transfected with rat B1R; agonist Des-Arg9 bradykinin at EC80; read-out: % Inh. (rat B1R) 10 μM. Here is the method: as §1, §2, §3, §4, §5

With `Cc1cc(S(=O)(=O)N2CCCCC2CCC(=O)N2CCC3(CC2)CCC(c2cccs2)(N(C)C)CC3)c(C)cc1Cl` (stereo not shown) [CC-14, 3-[1-[(4-Chloro-2,5-dimethyl-phenyl)sulfonyl]-piperidin-2-yl]-1-(3-dimethylamino-3-thiophen-2-yl-9-azaspiro[5.5]undecan-9-yl)-propan-1-one], the inhibition at 10 µM amounted to 99% at human B1R and 101% at rat B1R.
The corresponding values for `CN(C)C1(c2cccs2)CCC2(CCN(C(=O)CC(NS(=O)(=O)c3ccc4ccccc4c3)c3ccccc3)CC2)CC1` (stereo not shown) [CC-15, N-[3-(3-Dimethylamino-3-thiophen-2-yl-9-azaspiro[5.5]undecan-9-yl)-3-oxo-1-phenyl-propyl]-naphthalene-2-sulfonic acid amide] are 69% and 100%.
Taken in the same sequence, the figures for `COc1cc(C)c(S(=O)(=O)N2CCCCC2CCCC(=O)N2CCC3(CC2)CCC(c2cccs2)(N(C)C)CC3)c(C)c1` (stereo not shown) [CC-16, 1-(3-Dimethylamino-3-thiophen-2-yl-9-azaspiro[5.5]undecan-9-yl)-4-[1-[(4-methoxy-2,6-dimethyl-phenyl)sulfonyl]-piperidin-2-yl]-butan-1-one] were 99% and 102%.
Taken in the same sequence, the figures for `COc1cc(C)c(S(=O)(=O)N2CCCCC2COCC(=O)N2CCC3(CC2)CCC(c2ccccc2)(N2CCCC2)CC3)c(C)c1` (stereo not shown) [Compound 1, 2-((1-(4-Methoxy-2,6-dimethylphenylsulfonyl)piperidin-2-yl)methoxy)-1-(9-phenyl-9-(pyrrolidin-1-yl)-3-azaspiro[5.5]undecan-3-yl)ethanone] were 100% and 92%.
For the molecule `COc1cc(C)c(S(=O)(=O)N2CCCC[C@H]2COCC(=O)N2CCC3(CC2)CCC(c2ccccc2)(N(C)C)CC3)c(C)c1` [Compound 2, 1-(9-(Dimethylamino)-9-phenyl-3-azaspiro[5.5]undecan-3-yl)-2-(((S)-1-(4-methoxy-2,6-dimethylphenylsulfonyl)piperidin-2-yl)methoxy)ethanone], the inhibition at 10 µM at human B1R was found to be 100%; at rat B1R, 94%.
Taken in the same sequence, the figures for `COc1cc(C)c(S(=O)(=O)N(CCOCC(=O)N2CCC3(CC2)CCC(c2ccccc2)(N(C)C)CC3)C2CC2)c(C)c1` [Compound 3, N-Cyclopropyl-N-(2-(2-(9-(dimethylamino)-9-phenyl-3-azaspiro[5.5]undecan-3-yl)-2-oxoethoxy)ethyl)-4-methoxy-2,6-dimethylbenzenesulfonamide] were 100% and 102%.
Taken in the same sequence, the figures for `COc1cc(C)c(S(=O)(=O)N2c3ccccc3C[C@H]2COCC(=O)N2CCC3(CC2)CCC(c2ccccc2)(N(C)C)CC3)c(C)c1` [Compound 4, 1-(9-(Dimethylamino)-9-phenyl-3-azaspiro[5.5]undecan-3-yl)-2-(((S)-1-(4-methoxy-2,6-dimethylphenylsulfonyl)indolin-2-yl)methoxy)ethanone] were 98% and 102%.
Taken in the same sequence, the figures for `CN(C)C1(c2ccccc2)CCC2(CCN(C(=O)C[C@@H](NS(=O)(=O)c3ccc4ccccc4c3)c3ccccc3)CC2)CC1` [Compound 5, N-((1R)-3-(9-(Dimethylamino)-9-phenyl-3-azaspiro[5.5]undecan-3-yl)-3-oxo-1-phenylpropyl)naphthalene-2-sulfonamide] were 77% and 99%.
As for `Cc1cccc(Cl)c1S(=O)(=O)N1CCCC[C@H]1COCC(=O)N1CCC2(CC1)CCC(c1ccccc1)(N(C)C)CC2` [Compound 6, 2-(((S)-1-(2-Chloro-6-methylphenylsulfonyl)piperidin-2-yl)methoxy)-1-(9-(dimethylamino)-9-phenyl-3-azaspiro[5.5]undecan-3-yl)ethanone], the inhibition at 10 µM on human B1R stood at 100%; at rat B1R, 97%.
For `Cc1cc(S(=O)(=O)N2CCCCC2CCC(=O)N2CCC3(CC2)CCC(c2ccccc2)(N(C)C)CC3)c(C)cc1Cl` (stereo not shown) [Compound 7, 3-(1-(4-Chloro-2,5-dimethylphenylsulfonyl)piperidin-2-yl)-1-(9-(dimethylamino)-9-phenyl-3-azaspiro[5.5]undecan-3-yl)propan-1-one], the figures for the inhibition at 10 µM at human B1R and on rat B1R were 98% and 97%, respectively.
Taken in the same sequence, the figures for `COc1cc(C)c(S(=O)(=O)N2CCCCC2CCCC(=O)N2CCC3(CC2)CCC(c2ccccc2)(N(C)C)CC3)c(C)c1` (stereo not shown) [Compound 8, 1-(9-(Dimethylamino)-9-phenyl-3-azaspiro[5.5]undecan-3-yl)-4-(1-(4-methoxy-2,6-dimethylphenylsulfonyl)piperidin-2-yl)butan-1-one] were 98% and 98%.
Taken in the same sequence, the figures for `CN(C)C1(c2ccccc2)CCC2(CCN(C(=O)CC3CCCCN3S(=O)(=O)c3cccc(C(F)(F)F)c3)CC2)CC1` (stereo not shown) [Compound 9, 1-(9-(Dimethylamino)-9-phenyl-3-azaspiro[5.5]undecan-3-yl)-2-(1-(3-(trifluoromethyl)phenylsulfonyl)piperidin-2-yl)ethan-1-one] were 92% and 38%.
The corresponding values for `COc1cc(C)c(S(=O)(=O)N2C=CNC(=O)[C@H]2CC(=O)N2CCC3(CC2)CCC(c2ccccc2)(N(C)C)CC3)c(C)c1` [Compound 10, (3R)-3-(2-(9-(Dimethylamino)-9-phenyl-3-azaspiro[5.5]undecan-3-yl)-2-oxoethyl)-4-(4-methoxy-2,6-dimethylphenylsulfonyl)-3,4-dihydropyrazin-2(1H)-one] are 100% and 92%.
On to `COc1cc(C)c(S(=O)(=O)N2CCCC[C@H]2COCC(=O)N2CCC3(CC2)CCC(c2cccc(F)c2)(N(C)C)CC3)c(C)c1` [Compound 11, 1-(9-(Dimethylamino)-9-(3-fluorophenyl)-3-azaspiro[5.5]undecan-3-yl)-2-(((S)-1-(4-methoxy-2,6-dimethylphenylsulfonyl)piperidin-2-yl)methoxy)ethanone], for which the inhibition at 10 µM on human B1R amounted to 100%; on rat B1R it was 104%.

These data come from patent US8278319B2, “Substituted spiroamine compounds” (Gruenenthal GmbH, priority 2008, dated 2012).
